# Assay results: US20240293387A1, “Methods of Treating Fabry Disease in Pediatric Patients” (Amicus Therapeutics, Inc., priority 2021, published 2024)
# Read-outs that look alike come from different tables or passages of the source.
# Experiments:
# [1] = test system: patients with Fabry disease with amenable mutations; type: in vivo, human
# Method: These analyses included data from 4 Phase 2 and 4 Phase 3 clinical trials with the data cutoff of Feb.
# FAB-CL-202 (NCT00283959), FAB-CL-203 (NCT00283933), and FAB-CL-204 (NCT00304512) were phase 2, open-label, noncomparative studies that evaluated the safety, tolerability, pharmacokinetics (PK), and pharmacodynamics (PD) of migalastat (dose range: 50-250 mg) in patients with Fabry disease.
# FAB-CL-205 (NCT0052607) was a phase 2, long-term, open-label extension (OLE) study for patients completing phase 2 clinical trials, including FAB-CL-202, FAB-CL-203, and FAB-CL-204. The study included a period with migalastat 150 mg every other day (QOD), then a dose-escalation period, followed by 150 mg QOD.
# FACETS (AT1001-011, NCT00925301) was a phase 3, placebo-controlled study designed to evaluate the efficacy, safety, and PD of 6 months of migalastat 150 mg QOD versus placebo, followed by an 18-month open label extension (OLE) of migalastat in ERT-naive patients with Fabry disease and migalastat-amenable GLA variants.
# AT1001-041 (NCT01458119) was a long-term OLE study evaluating the long-term safety and efficacy of migalastat in patients completing FAB-CL-205, AT1001-011, or AT1001-012
# AT1001-042 (NCT02194985) is an ongoing, long-term OLE study evaluating the long-term safety and efficacy of migalastat in patients who participated in AT1001-012 or AT1001-041.
# The analysis evaluates CBV events reported as treatment-emergent adverse events (TEAEs) during migalastat 150 mg QOD treatment in patients with amenable mutations in phase 2 and phase 3 clinical trials.
# CBV events were identified by searching medical history and TEAE listings with stroke-related terms, including brain stem ischemia, cerebral infarction, cerebral hemorrhage, cerebral ischemia, cerebrovascular accident, embolic stroke, and TIA.
# Only amenable patients who received at least 1 dose of migalastat 150 mg QOD were included in this analysis.
# [2] = test system: pediatric subjects with Fabry disease and amenable GLA variants; test: AT1001-020 Stage 1 safety in pediatric subjects (interim analysis)
# Method: All safety analyses were performed using the safety population.
# During Stage 1, urinalysis (albumin, protein, specific gravity, pH, and microscopy) was the only laboratory parameter collected at Month 1 and therefore, the only laboratory parameter assessed for the Interim Analysis.
# [3] = 150 mg QOD, FAB-CL 202, 203, 204, and 205 (n = 17)
# [4] = Safety Population (N = 9), Stage 1
smiles,measurement,setting,value
"OC[C@H]1NC[C@H](O)[C@@H](O)[C@H]1O [migalastat, (2R,3S,4R,5S)-2-(hydroxymethyl) piperdine-3,4,5-triol]","Any CBV event during treatment, unique patients","[1]; 150 mg QOD, ATTRACT (n = 49)",2 (4%)
same,"Brain stem ischemia during treatment, patients","[1]; 150 mg QOD, ATTRACT (n = 49)",0
same,"Cerebral hemorrhage during treatment, patients","[1]; 150 mg QOD, ATTRACT (n = 49)",0
same,"Cerebral infarction during treatment, patients","[1]; 150 mg QOD, ATTRACT (n = 49)",0
same,"Cerebral ischemia during treatment, patients","[1]; 150 mg QOD, ATTRACT (n = 49)",0
same,"Cerebrovascular accident during treatment, patients","[1]; 150 mg QOD, ATTRACT (n = 49)",0
same,"Embolic stroke during treatment, patients","[1]; 150 mg QOD, ATTRACT (n = 49)",0
same,"Transient ischemic attack during treatment, patients","[1]; 150 mg QOD, ATTRACT (n = 49)",2 (4%)
same,"Any CBV event during treatment, unique patients",[1]; [3],3 (18%)
same,"Brain stem ischemia during treatment, patients",[1]; [3],0
same,"Cerebral hemorrhage during treatment, patients",[1]; [3],0
same,"Cerebral infarction during treatment, patients",[1]; [3],1 (6%)
same,"Cerebral ischemia during treatment, patients",[1]; [3],1 (6%)
same,"Cerebrovascular accident during treatment, patients",[1]; [3],1 (6%)
same,"Embolic stroke during treatment, patients",[1]; [3],0
same,"Transient ischemic attack during treatment, patients",[1]; [3],1 (6%)
same,"Any CBV event during treatment, unique patients","[1]; 150 mg QOD, FACETS (n = 48)",3 (6%)
same,"Brain stem ischemia during treatment, patients","[1]; 150 mg QOD, FACETS (n = 48)",1 (2%)
same,"Cerebral hemorrhage during treatment, patients","[1]; 150 mg QOD, FACETS (n = 48)",1 (2%)
same,"Cerebral infarction during treatment, patients","[1]; 150 mg QOD, FACETS (n = 48)",0
same,"Cerebral ischemia during treatment, patients","[1]; 150 mg QOD, FACETS (n = 48)",0
same,"Cerebrovascular accident during treatment, patients","[1]; 150 mg QOD, FACETS (n = 48)",0
same,"Embolic stroke during treatment, patients","[1]; 150 mg QOD, FACETS (n = 48)",0
same,"Transient ischemic attack during treatment, patients","[1]; 150 mg QOD, FACETS (n = 48)",1 (2%)
same,Number of CBV events reported during treatment,"[1]; 150 mg QOD, N = 114",11
same,"Brain stem ischemia during treatment, patients","[1]; 150 mg QOD, Total (N = 114)",1 (1%)
same,"Cerebral hemorrhage during treatment, patients","[1]; 150 mg QOD, Total (N = 114)",1 (1%)
same,"Cerebral infarction during treatment, patients","[1]; 150 mg QOD, Total (N = 114)",1 (1%)
same,"Cerebral ischemia during treatment, patients","[1]; 150 mg QOD, Total (N = 114)",1 (1%)
same,"Cerebrovascular accident during treatment, patients","[1]; 150 mg QOD, Total (N = 114)",1 (1%)
same,"Embolic stroke during treatment, patients","[1]; 150 mg QOD, Total (N = 114)",0
same,"Transient ischemic attack during treatment, patients","[1]; 150 mg QOD, Total (N = 114)",4 (4%)
same,CBV events categorized as serious adverse events (SAE),"[1]; 150 mg QOD, of 11 CBV events",Seven
same,CBV events considered related to treatment,"[1]; 150 mg QOD, of 11 CBV events",None
same,CBV events mild or moderate in severity,"[1]; 150 mg QOD, of 11 CBV events",82%
same,CBV events that led to treatment discontinuation,"[1]; 150 mg QOD, of 11 CBV events",Two
same,"Time on migalastat 150 mg QOD at first event onset, mean (SD)",[1]; 8 patients with CBV events,1.1 (1.1) years
same,Patients with pre-migalastat CBV event who did not experience new CBV event during treatment,[1]; among the 16 patients with pre-migalastat CBV event,10 (63%)
same,Overall incidence of CBV events during migalastat treatment,[1]; average of 4 years of migalastat,low
same,Changes in mean values from baseline for urinalysis parameters,[2]; Month 1,no clinically meaningful changes
same,Subjects with urine pH from normal at baseline to high at Month 1,[2]; Safety Population (N = 9),Three
same,Number of subjects discontinued due to TEAEs,[2]; [4],0 n (%)
same,Number of subjects with AEs leading to death,[2]; [4],0 n (%)
same,Number of subjects with TEAEs,[2]; [4],5 (55.6) n (%)
same,Number of subjects with related TEAEs,[2]; [4],1 (11.1) n (%)
same,Number of subjects with treatment-emergent SAEs,[2]; [4],0 n (%)
same,Number of TEAEs,"[2]; Safety Population (N = 9), Stage 1, 123 mg capsule QOD",6 n
same,"Drug eruption, Number of Events","[2]; Safety Population, Stage 1",1 (16.7) n (%)
same,"Drug eruption, Number of Subjects","[2]; Safety Population, Stage 1",1 (11.1) n (%)
same,"Headache, Number of Events","[2]; Safety Population, Stage 1",1 (16.7) n (%)
same,"Headache, Number of Subjects","[2]; Safety Population, Stage 1",1 (11.1) n (%)
same,"Infections and infestations, Number of Events","[2]; Safety Population, Stage 1",4 (66.7) n (%)
same,"Infections and infestations, Number of Subjects","[2]; Safety Population, Stage 1",4 (44.4) n (%)
same,"Nervous system disorders, Number of Events","[2]; Safety Population, Stage 1",1 (16.7) n (%)
same,"Nervous system disorders, Number of Subjects","[2]; Safety Population, Stage 1",1 (11.1) n (%)
same,"Pharyngitis, Number of Events","[2]; Safety Population, Stage 1",1 (16.7) n (%)
same,"Pharyngitis, Number of Subjects","[2]; Safety Population, Stage 1",1 (11.1) n (%)
same,"Skin and subcutaneous tissue disorders, Number of Events","[2]; Safety Population, Stage 1",1 (16.7) n (%)
same,"Skin and subcutaneous tissue disorders, Number of Subjects","[2]; Safety Population, Stage 1",1 (11.1) n (%)
same,"Upper respiratory tract infection, Number of Events","[2]; Safety Population, Stage 1",3 (50.0) n (%)
same,"Upper respiratory tract infection, Number of Subjects","[2]; Safety Population, Stage 1",3 (33.3) n (%)
same,Potentially clinically significant abnormalities in urinalysis parameters,[2]; Stage 1,no potentially clinically significant abnormalities
same,New safety findings,"[2]; Stage 1, 123 mg, pediatric patients aged ≥12 to 16 years",No new safety findings
